Reference: patent US20250360152A1, “NUTRITIONAL COMPOSITION FOR PREVENTING BRONCHITIS” (MEGMILK SNOW BRAND Co., Ltd., priority 2022, published 2025)

Assays:
[1] = tested on: onset of bronchitis in infants; assay: Logistic regression: breast milk carbohydrate component concentrations vs onset of bronchitis in infants during first year of life (153 samples); type: in vivo, human; conditions: for Odds ratio: concentration in breast milk vs onset of infant bronchitis within one year, adjusted for sex, siblings, method of delivery, birth weight; for Relationship between concentration and the onset of bronchitis (in words) / Regression coefficient: logistic regression; for Regression coefficient: concentration in breast milk vs onset of infant bronchitis
Protocol: Various carbohydrate components were measured for 153 breast milk samples, analyzing a relationship with a presence or absence of the onset of bronchitis in infants during the first year of life using a logistic regression.
(§1) Bean Stalk Snow Co., Ltd. Conducted a prospective cohort study (UMIN ID 000015494) from 2014 to 2019 for investigating the relationship between the breast milk components of Japanese and a health status of mothers and children in Japan. In the study, breast milk samples collected from 1,210 mothers and questionnaire results of investigating the health status of mothers and children were used in the study. In addition, 200 samples were randomly selected from the 1,210 samples. The breast milk collected between 1 and 2 months after childbirth was used as the breast milk samples for analysis. Parents filled out questionnaires investigating the health status of their infants six times in total, every two months for one year after birth, and the results were collected. From the questionnaire results, the results were compiled of whether or not the infants were diagnosed with the bronchitis by a doctor within one year after the childbirth. If a description of a presence or absence of the onset of bronchitis was unclear, they were excluded from the study.
(§2) As a result, in the questionnaires conducted six times in total in a year, for 153 samples, questionnaires were answered correctly about whether the infants had been diagnosed with the bronchitis, and the samples became subjects to be analyzed in the study. Of the 153 samples, 18 samples were from infants diagnosed with the bronchitis within one year of birth.
For the 153 breast milk samples, the relationship between the concentrations of N-acetylneuraminic acid, the oligosaccharide, the N-linked glycan, the O-linked glycan, the disialo N-linked glycan A, and the disialo N-linked glycan B and the onset of infant bronchitis was analyzed using the logistic regression. Sex of the infant, a presence or absence of siblings, the method of delivery (natural birth, cesarean section), and a birth weight were used as adjustment factors.

[2] = tested on: onset of bronchitis in infants; assay: Two-group comparison of breast milk concentrations (infants ever vs never contracted bronchitis) and Fisher's exact test at a cut-off concentration; type: in vivo, human; conditions: for Concentration in the breast milk that reduces the risk of contracting the bronchitis: cut-off of Fisher's exact test; for Concentration in breast milk consumed by infants who had never contracted bronchitis versus infants who had ever contracted bronchitis: two groups, FIG. 1-5
Text: as §1, §2
The breast milk samples were divided into two groups, based on whether or not the infants had ever contracted the bronchitis, comparing the total N-acetylneuraminic acids concentrations in the breast milk. […] A distribution range of the total N-acetylneuraminic acids concentrations in the breast milk consumed by the infants who had never contracted the bronchitis was 181-977 mg/L, with a median of 395 mg/L (Table 2). The distribution of the total N-acetylneuraminic acids concentrations was, different from a normal distribution, a distribution spreading out its tail towards its higher end of concentrations. Such a distribution is seen in the distribution of heights and weights of the infants, and the 3rd to 97th percentile of the overall distribution is used as standards when creating growth curves for infants (Infant Physical Development Survey Report 2000). Based on this, the 3rd to 97th percentile was used as a standard range of the total N-acetylneuraminic acids concentrations in the breast milk. A minimum value of the total N-acetylneuraminic acid concentration in the breast milk consumed by the infants who had never contracted the bronchitis was 221 mg/L corresponding to the 3rd percentile of the distribution.

| Molecule | Odds ratio [1] | Relationship between concentration and the onset of bronchitis (in words) [1] | Regression coefficient [1] | Concentration in the breast milk that reduces the risk of contracting the bronchitis [2] | Concentration in breast milk consumed by infants who had never contracted bronchitis versus infants who had ever contracted bronchitis [2] | Regression coefficient ([1]; listed as disialo N-linked glycan B) | Regression coefficient ([1]; listed as disialo N-linked glycan A) |
| --- | --- | --- | --- | --- | --- | --- | --- |
| CC(=O)N[C@H]1[C@H]([C@H](O)[C@H](O)CO)O[C@@](O[C@H]2[C@@H](O)[C@@H](CO)O[C@@H](O[C@H]3[C@H](O)[C@@H](O)C(O)O[C@@H]3CO)[C@@H]2O)(C(=O)O)C[C@@H]1O (some centres unmarked) [3′-SL, 3′-sialyllactose, reference compound] | 0.53 | not observed | −0.626 | – | – | – | – |
| CC(=O)N[C@H]1[C@H]([C@H](O)[C@H](O)CO)O[C@@](OC[C@H]2O[C@@H](O[C@H]3[C@H](O)[C@@H](O)[C@H](O)O[C@@H]3CO)[C@H](O)[C@@H](O)[C@H]2O)(C(=O)O)C[C@@H]1O [6′-SL, 6′-sialyllactose] | – | – | – | ≥ 135 mg/L | significantly higher | – | – |
| CC(=O)N[C@H]1[C@H]([C@H](O)[C@H](O)CO)OC(O)(C(=O)O)C[C@@H]1O (some centres unmarked) [Total N-acetylneuraminic acid, N-acetylneuraminic acid] | 0.098 | statistically significant relationship | −2.32 | ≥ 246 mg/L | significantly higher | – | – |
| Neu5Acα2-6Galβ1-4GlcNAcβ1-2Manα1-3 (Neu5Acα2-6Galβ1-4GlcNAcβ1-2Manα1-6) Manβ1-4GlcNAcβ1-4 (Fucα1-6) GlcNAc [Disialo N-linked glycan B] | 0.24 | – | −1.407 | ≥ 0.245 µmol/L | significantly higher | negative | – |
| Neu5Acα2-6Galβ1-4GlcNAcβ1-2Manαl-3 (Neu5Acα2-6Galβ1-4GlcNAcβ1-2Manα1-6) Manβ1-4GlcNAcβ1-4GlcNAc [Disialo N-linked glycan A] | 0.15 | – | −1.918 | ≥ 0.313 µmol/L | significantly higher | – | negative |
